Here are results for eight molecules from patent publication US9796711B2, “Substituted pyrazolo[3,4-b]pyridin-6-carboxylic acids and method of use” (AbbVie S.àr.l., priority 2015, dated 2017).

Assay [1] addresses T1, ΔF508-CFTR (Homo sapiens, UniProt P13569, DEL508-508).
T1 construct: host or cells: CFBE41o-, doxycycline-inducible
The experiment in a line: CFTR cell surface levels using HRP-tagged ΔF508-CFTR expressing CFBE cells, in the presence of a co-corrector. In kind it is cell-based. The conditions noted are these: HRP-tagged ΔF508-CFTR expressing CFBE cells, in the presence of 3 μM co-corrector; for EC50: read-out: EC50. Summed up: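 Cells were seeded with 0.5 μg/mL doxycycline and held 68 h at 37 °C. Test compounds plus 3 μM co-corrector (final 0.1% DMSO) were then added for 20 h at 33 °C. Washed cells received HRP substrate, and luminescence was normalized between DMSO and 3 μM co-corrector controls.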

Assay [2] addresses T1, ΔF508-CFTR. The experiment in a line: CFTR cell surface levels using HRP-tagged ΔF508-CFTR expressing CFBE cells, intrinsic corrector capacity. In kind it is cell-based. To be noted: for EC50: read-out: EC50. In outline:
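Here the cells express ΔF508-CFTR with horseradish peroxidase inserted in extracellular loop 4, so only rescued channel at the surface gives luminescent signal. Compounds act on their own, 20 h at the reduced temperature of 33 °C; values are percent activity relative to DMSO and a 3 μM corrector.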

The mark [3] stands for this setting: HRP-tagged ΔF508-CFTR expressing CFBE cells, intrinsic corrector capacity (no co-corrector), 33° C., 20 hours.
The mark [4] stands for this setting: HRP-tagged ΔF508-CFTR CFBE41o- cells, compounds alone (intrinsic corrector capacity), 20 hours at 33° C., positive control 3 μM corrector.
Where [5] appears, read: HRP-tagged ΔF508-CFTR CFBE41o- cells, compounds alone (intrinsic corrector capacity), 20 hours at 33° C.

T1 sequence (P13569 with tags, fused parts or gaps DEL508-508): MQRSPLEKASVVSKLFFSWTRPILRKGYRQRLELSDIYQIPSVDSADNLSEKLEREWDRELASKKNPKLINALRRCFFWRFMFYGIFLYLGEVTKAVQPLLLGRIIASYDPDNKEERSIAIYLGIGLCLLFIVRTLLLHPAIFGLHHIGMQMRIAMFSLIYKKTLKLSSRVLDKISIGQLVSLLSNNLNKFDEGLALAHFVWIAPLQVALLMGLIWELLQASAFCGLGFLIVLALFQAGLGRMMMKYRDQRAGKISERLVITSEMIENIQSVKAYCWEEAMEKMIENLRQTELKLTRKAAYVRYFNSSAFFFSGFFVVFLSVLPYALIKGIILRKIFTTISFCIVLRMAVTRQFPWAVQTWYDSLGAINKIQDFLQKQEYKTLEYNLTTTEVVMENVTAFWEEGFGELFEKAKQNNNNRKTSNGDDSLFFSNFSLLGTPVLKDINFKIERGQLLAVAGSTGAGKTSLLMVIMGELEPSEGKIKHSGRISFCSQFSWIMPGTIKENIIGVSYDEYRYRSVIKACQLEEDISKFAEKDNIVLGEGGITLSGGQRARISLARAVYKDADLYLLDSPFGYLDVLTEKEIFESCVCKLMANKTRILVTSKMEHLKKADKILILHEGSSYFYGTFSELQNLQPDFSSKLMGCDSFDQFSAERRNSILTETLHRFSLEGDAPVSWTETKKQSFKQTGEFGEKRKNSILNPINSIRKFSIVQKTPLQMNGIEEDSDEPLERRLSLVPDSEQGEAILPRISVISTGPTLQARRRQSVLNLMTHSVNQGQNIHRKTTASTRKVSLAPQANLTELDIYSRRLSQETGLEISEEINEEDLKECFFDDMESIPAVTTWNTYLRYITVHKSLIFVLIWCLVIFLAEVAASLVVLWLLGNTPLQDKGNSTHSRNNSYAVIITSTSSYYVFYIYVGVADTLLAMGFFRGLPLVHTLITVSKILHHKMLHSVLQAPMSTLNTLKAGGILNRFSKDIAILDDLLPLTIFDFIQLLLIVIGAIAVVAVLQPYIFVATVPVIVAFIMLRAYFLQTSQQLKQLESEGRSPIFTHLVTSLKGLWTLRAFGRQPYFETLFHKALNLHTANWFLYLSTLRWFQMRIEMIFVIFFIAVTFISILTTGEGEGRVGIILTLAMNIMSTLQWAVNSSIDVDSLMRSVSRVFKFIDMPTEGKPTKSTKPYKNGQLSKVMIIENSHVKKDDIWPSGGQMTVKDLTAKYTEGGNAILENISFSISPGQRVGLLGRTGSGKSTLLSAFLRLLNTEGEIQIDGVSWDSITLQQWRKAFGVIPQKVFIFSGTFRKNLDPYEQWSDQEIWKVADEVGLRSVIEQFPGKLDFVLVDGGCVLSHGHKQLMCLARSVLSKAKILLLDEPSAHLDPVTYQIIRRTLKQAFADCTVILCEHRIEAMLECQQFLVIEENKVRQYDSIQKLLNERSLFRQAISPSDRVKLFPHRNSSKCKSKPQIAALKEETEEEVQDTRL

The EC50 is the midpoint of the concentration-response curve. Take `CC(C)Oc1nn(C2CCCCC2)c2nc(C(=O)O)cc(-c3ccc(C(=O)N4CCN(C)CC4)cc3)c12` [compound 764, 1-cyclohexyl-4-[4-(4-methylpiperazine-1-carbonyl)phenyl]-3-[(propan-2-yl)oxy]-1H-pyrazolo[3,4-b]pyridine-6-carboxylic acid]: the entries for the “% Activation” value in assay [1] and in assay [2] (setting [3]) were 255.65% and 85.92%, respectively. Also, the concentration giving a half-maximal response (EC50) in assay [1] is 2410 nM; in assay [2] (setting [3]), 3330 nM.
Take `CC(C)c1nn(-c2cccc(N(C)C)n2)c2nc(C(=O)O)cc(-c3ccc(N4CCOCC4)cc3)c12` [compound 267, 1-[6-(dimethylamino)pyridin-2-yl]-4-[4-(morpholin-4-yl)phenyl]-3-(propan-2-yl)-1H-pyrazolo[3,4-b]pyridine-6-carboxylic acid]: the “% Activation” value was determined as 498.35% in assay [1] and 318.9% in assay [2] (setting [4]). Moreover, the values for the half-maximal effective concentration (EC50) in assay [1] and in assay [2] (setting [5]) were 412 nM and 807 nM, respectively.
For `CCOC(=O)N1CCN(C2CCN(c3cc(C(=O)O)nc4c3c(C3CCC3)nn4-c3ccc(F)cc3)CC2)CC1` [compound 891, 3-cyclobutyl-4-{4-[4-(ethoxycarbonyl)piperazin-1-yl]piperidin-1-yl}-1-(4-fluorophenyl)-1H-pyrazolo[3,4-b]pyridine-6-carboxylic acid], in assay [1], the “% Activation” value was determined as 564.5% and the concentration for a half-maximal effect (EC50) came out at 51 nM. Besides, in assay [2] (setting [3]), the “% Activation” value turned out to be 367.25% and the concentration for a half-maximal effect (EC50) amounted to 93.1 nM.
The matching figures for `CC(C)c1nn(-c2ccc(F)cc2)c2nc(C(=O)O)cc(N3CCN(C4CCN(C)CC4)CC3)c12` [compound 801, 1-(4-fluorophenyl)-4-[4-(1-methylpiperidin-4-yl)piperazin-1-yl]-3-(propan-2-yl)-1H-pyrazolo[3,4-b]pyridine-6-carboxylic acid]: 253.1%, 1670 nM, 67.99% and 1670 nM.
In the case of `CC(C)c1nn(C2CCCCC2)c2nc(C(=O)O)cc(-c3ccc4c(c3)CNC4=O)c12` [compound 364, 1-cyclohexyl-4-(1-oxo-2,3-dihydro-1H-isoindol-5-yl)-3-(propan-2-yl)-1H-pyrazolo[3,4-b]pyridine-6-carboxylic acid], the entries for the “% Activation” value in assay [1] and in assay [2] (setting [4]) were 282.3% and 118.28%, respectively. The EC50 was 1640 nM in assay [1] and 2280 nM in assay [2] (setting [5]).
The matching figures for `COCCN(C)c1ncc(-c2cc(C(=O)O)nc3c2c(C(C)C)nn3-c2cccc(N3CCOCC3)c2)cn1` [compound 230, 4-{2-[(2-methoxyethyl)(methyl)amino]pyrimidin-5-yl}-1-[3-(morpholin-4-yl)phenyl]-3-(propan-2-yl)-1H-pyrazolo[3,4-b]pyridine-6-carboxylic acid]: 507.3%, 368.85%, 514 nM and 1490 nM.
The matching figures for `Cc1nn(-c2ccccc2)c2nc(C(=O)O)cc(-c3ccc(N4CCOC(CO)C4)cc3)c12` (centres unmarked) [compound 133, 4-{4-[2-(hydroxymethyl)morpholin-4-yl]phenyl}-3-methyl-1-phenyl-1H-pyrazolo[3,4-b]pyridine-6-carboxylic acid]: 280.3%, 74.96%, 3340 nM and 3340 nM.
`O=C(O)c1cc(N2CCOC(CN3CCCCC3)C2)c2c(C3CCC3)nn(-c3ccccc3)c2n1` (centres unmarked) [compound 556, 3-cyclobutyl-1-phenyl-4-{2-[(piperidin-1-yl)methyl]morpholin-4-yl}-1H-pyrazolo[3,4-b]pyridine-6-carboxylic acid]: the figures for the “% Activation” value in assay [1] and in assay [2] (setting [3]) were 324% and 140.1%, respectively. In addition, the 50% effective concentration (EC50) turned out to be 682 nM in assay [1] and 838 nM in assay [2] (setting [3]).
